Test results taken from ChEMBL document CHEMBL3407405 (J Med Chem, 2015).
pEC50: −log10 of the molar value.

What was measured:
[1] = molecular target: T1, Estrogen receptor (Homo sapiens) (UniProt P03372); assay: Displacement of [3H]estradiol from human full-length ERalpha after 18 to 24 hrs by relative binding affinity/competitive radiometric binding assay relative to estradiol; details: concentration not given here
T1 sequence (whole entry): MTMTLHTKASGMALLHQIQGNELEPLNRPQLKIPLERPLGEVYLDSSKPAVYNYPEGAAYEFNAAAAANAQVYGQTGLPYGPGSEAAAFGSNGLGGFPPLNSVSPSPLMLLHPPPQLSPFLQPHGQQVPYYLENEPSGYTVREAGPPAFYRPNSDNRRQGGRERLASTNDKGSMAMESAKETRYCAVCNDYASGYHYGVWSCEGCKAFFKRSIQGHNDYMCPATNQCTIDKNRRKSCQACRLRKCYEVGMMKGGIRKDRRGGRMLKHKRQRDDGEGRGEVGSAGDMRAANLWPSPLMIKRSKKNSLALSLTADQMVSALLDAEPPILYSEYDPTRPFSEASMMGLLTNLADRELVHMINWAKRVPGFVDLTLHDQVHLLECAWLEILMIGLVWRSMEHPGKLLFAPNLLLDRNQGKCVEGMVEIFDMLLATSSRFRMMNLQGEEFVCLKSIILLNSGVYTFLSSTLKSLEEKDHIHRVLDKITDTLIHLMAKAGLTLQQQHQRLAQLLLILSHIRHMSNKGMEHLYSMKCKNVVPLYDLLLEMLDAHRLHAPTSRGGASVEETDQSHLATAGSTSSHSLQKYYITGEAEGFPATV

Estrogen receptor beta [2] = molecular target: T2, Estrogen receptor beta (Homo sapiens, UniProt Q92731); assay: Displacement of [3H]estradiol from human full-length ERbeta after 18 to 24 hrs by relative binding affinity/competitive radiometric binding assay relative to estradiol; details: concentration not given here
Estrogen receptor [3] = molecular target: T3, Estrogen receptor (Homo sapiens, UniProt P03372)
T3 sequence (P03372 whole entry): T1 sequence (whole entry)
Description: Agonist activity at human ERalpha expressed in human HEC1 cells assessed as transcriptional activation after 24 hrs by ERE-luciferase reporter gene transfection assay

Estrogen receptor beta [4] = molecular target: T2, Estrogen receptor beta
Description: Agonist activity at human ERbeta expressed in human HEC1 cells assessed as transcriptional activation after 24 hrs by ERE-luciferase reporter gene transfection assay

Estrogen receptor [5] = molecular target: T3, Estrogen receptor; remark: listed apart in the source
Description: Agonist activity at human ERalpha in human MCF7 cells assessed as progesterone receptor endogenous genes activation after 24 hrs by qPCR

Estrogen receptor beta [6] = molecular target: T2, Estrogen receptor beta; remark: listed apart in the source
Description: Agonist activity at human ERbeta in human MCF7 cells assessed as otubain 2 endogenous genes activation after 24 hrs by qPCR

T2 sequence (Q92731 whole entry): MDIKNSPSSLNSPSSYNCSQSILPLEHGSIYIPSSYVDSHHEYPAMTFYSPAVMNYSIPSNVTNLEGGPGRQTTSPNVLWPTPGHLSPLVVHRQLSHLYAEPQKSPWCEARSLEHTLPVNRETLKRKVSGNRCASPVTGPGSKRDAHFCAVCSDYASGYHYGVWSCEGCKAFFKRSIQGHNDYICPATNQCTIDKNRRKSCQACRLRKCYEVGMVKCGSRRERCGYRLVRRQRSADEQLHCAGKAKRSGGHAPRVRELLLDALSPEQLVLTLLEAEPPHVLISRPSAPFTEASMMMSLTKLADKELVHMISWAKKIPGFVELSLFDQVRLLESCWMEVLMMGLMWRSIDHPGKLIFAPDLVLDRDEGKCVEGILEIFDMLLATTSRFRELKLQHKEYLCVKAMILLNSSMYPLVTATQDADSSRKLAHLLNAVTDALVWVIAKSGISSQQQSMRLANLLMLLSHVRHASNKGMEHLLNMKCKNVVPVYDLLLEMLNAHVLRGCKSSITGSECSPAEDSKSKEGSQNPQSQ

| Structure (SMILES) | inhibition [1] [%] | inhibition (Estrogen receptor beta [2]) [%] | pEC50 (Estrogen receptor [3]) | pEC50 (Estrogen receptor beta [4]) | pEC50 (Estrogen receptor [5]) | pEC50 (Estrogen receptor beta [6]) |
| --- | --- | --- | --- | --- | --- | --- |
| C/C(=N\O)c1cc(-c2ccc(O)c(F)c2)ccc1O | 0.16 | 12 | 6.71 | 7.83 | 5.68 | 7.46 |
| CC/C(=N\O)c1cc(-c2ccc(O)cc2)ccc1O | 3 | 46 | – | – | – | – |
| COc1ccc(-c2ccc(O)c(/C(C)=N/O)c2)cc1Cl | < 0.005 | < 0.005 | – | – | – | – |
| C/C(=N\O)c1cc(-c2ccc(O)c(C)c2)ccc1O | 0.1 | 1.6 | – | – | – | – |
| C/C(=N\O)c1cc(-c2ccc(Cl)cc2)ccc1O | < 0.005 | 0.099 | – | – | – | – |
| C/C(=N\O)c1cc(-c2ccc(O)cc2)ccc1O | 0.54 | 46 | 7.53 | 8.40 | 7.08 | 7.90 |
| COc1ccc(-c2ccc(O)c(/C(C)=N/O)c2)cc1C | < 0.005 | < 0.005 | – | – | – | – |
| CC/C(=N\O)c1cc(-c2ccc(O)c(F)c2)ccc1O | 1.9 | 49 | – | – | – | – |
| COc1ccc(-c2ccc(O)c(/C(C)=N/O)c2)cc1 | < 0.005 | 0.011 | – | – | – | – |
| C/C(=N\O)c1cc(-c2ccc(O)c(Cl)c2)ccc1O | 0.033 | 1.1 | – | – | – | – |
| O/N=C(/c1cc(-c2ccc(O)cc2)ccc1O)C(F)(F)F | 0.036 | 0.76 | – | – | – | – |
| C/C(=N\O)c1cc(-c2ccc(F)cc2)ccc1O | < 0.005 | 0.015 | – | – | – | – |
| COc1ccc(-c2ccc(O)c(/C(C)=N/O)c2)cc1F | < 0.005 | < 0.005 | – | – | – | – |
